Test results reported in PubChem BioAssay (NCI).
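Interpolation was linear, between the two tested concentrations surrounding the appropriate level; five concentrations were tested over 48 hours in 96-well plates. GI50 is the concentration that inhibits growth by half. TGI: total growth inhibition.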

How the values were obtained:
Assay in all cases: growth of human tumour cells (NCI), 48 h
A498 renal = test system: A498 renal
A549 NSCLC = test system: A549 NSCLC
CAKI-1 renal = test system: CAKI-1 renal
CCRF-CEM leukemia = test system: CCRF-CEM leukemia
COLO 205 colon = test system: COLO 205 colon
DU-145 prostate = test system: DU-145 prostate
EKVX NSCLC = test system: EKVX NSCLC
HCC-2998 colon = test system: HCC-2998 colon
HCT-116 colon = test system: HCT-116 colon
HCT-15 colon = test system: HCT-15 colon
HL-60(TB) leukemia = test system: HL-60(TB) leukemia
HOP-62 NSCLC = test system: HOP-62 NSCLC
HOP-92 NSCLC = test system: HOP-92 NSCLC
IGROV1 ovarian = test system: IGROV1 ovarian
K-562 leukemia = test system: K-562 leukemia
KM12 colon = test system: KM12 colon
M14 melanoma = test system: M14 melanoma
MALME-3M melanoma = test system: MALME-3M melanoma
MCF7 breast = test system: MCF7 breast
MDA-MB-231 breast = test system: MDA-MB-231 breast
MDA-MB-435 = test system: MDA-MB-435
MOLT-4 leukemia = test system: MOLT-4 leukemia
NCI-H226 lung = test system: NCI-H226 lung
NCI-H23 lung = test system: NCI-H23 lung
NCI-H460 lung = test system: NCI-H460 lung
NCI-H522 lung = test system: NCI-H522 lung
NCI/ADR-RES ovarian = test system: NCI/ADR-RES ovarian
OVCAR-3 ovarian = test system: OVCAR-3 ovarian
OVCAR-4 ovarian = test system: OVCAR-4 ovarian
OVCAR-5 ovarian = test system: OVCAR-5 ovarian
OVCAR-8 ovarian = test system: OVCAR-8 ovarian
PC-3 prostate = test system: PC-3 prostate
RPMI-8226 leukemia = test system: RPMI-8226 leukemia
RXF 393 renal = test system: RXF 393 renal
SF-268 CNS = test system: SF-268 CNS
SF-295 CNS = test system: SF-295 CNS
SF-539 CNS = test system: SF-539 CNS
SK-MEL-2 melanoma = test system: SK-MEL-2 melanoma
SK-MEL-28 melanoma = test system: SK-MEL-28 melanoma
SK-MEL-5 melanoma = test system: SK-MEL-5 melanoma
SN12C renal = test system: SN12C renal
SNB-19 CNS = test system: SNB-19 CNS
SNB-75 CNS = test system: SNB-75 CNS
SR leukemia = test system: SR leukemia
SW-620 colon = test system: SW-620 colon
T-47D breast = test system: T-47D breast
TK-10 renal = test system: TK-10 renal
U251 CNS = test system: U251 CNS
UACC-257 melanoma = test system: UACC-257 melanoma
UO-31 renal = test system: UO-31 renal

C#C[C@]1(O)CC[C@H]2[C@@H]3CC=C4c5sc(-c6ccc(O)c(O)c6)nc5CC[C@]4(C)[C@H]3CC[C@@]21C
GI50 (A498 renal): 1.76 µM
TGI (A498 renal): 4.23 µM
GI50 (A549 NSCLC): 3.33 µM
TGI (A549 NSCLC): > 100 µM
GI50 (CAKI-1 renal): 2.98 µM
TGI (CAKI-1 renal): 15.1 µM
GI50 (CCRF-CEM leukemia): 0.764 µM
TGI (CCRF-CEM leukemia): > 100 µM
GI50 (COLO 205 colon): 2.42 µM
TGI (COLO 205 colon): 5.81 µM
GI50 (DU-145 prostate): 3.03 µM
TGI (DU-145 prostate): > 100 µM
GI50 (EKVX NSCLC): 2.14 µM
TGI (EKVX NSCLC): 55 µM
GI50 (HCC-2998 colon): 3.67 µM
TGI (HCC-2998 colon): 14.7 µM
GI50 (HCT-116 colon): 1.23 µM
TGI (HCT-116 colon): 2.87 µM
GI50 (HCT-15 colon): 1.26 µM
TGI (HCT-15 colon): 4.25 µM
GI50 (HL-60(TB) leukemia): 1.77 µM
TGI (HL-60(TB) leukemia): > 100 µM
GI50 (HOP-62 NSCLC): 3.91 µM
TGI (HOP-62 NSCLC): > 100 µM
GI50 (HOP-92 NSCLC): 3.78 µM
TGI (HOP-92 NSCLC): > 100 µM
GI50 (IGROV1 ovarian): 4.18 µM
TGI (IGROV1 ovarian): > 100 µM
GI50 (K-562 leukemia): 1.21 µM
TGI (K-562 leukemia): > 100 µM
GI50 (KM12 colon): 2.97 µM
TGI (KM12 colon): 55 µM
GI50 (M14 melanoma): 2.09 µM
TGI (M14 melanoma): 5.87 µM
GI50 (MALME-3M melanoma): 1.63 µM
TGI (MALME-3M melanoma): 4.8 µM
GI50 (MCF7 breast): 1.09 µM
TGI (MCF7 breast): 6.06 µM
GI50 (MDA-MB-231 breast): 2.97 µM
TGI (MDA-MB-231 breast): > 100 µM
GI50 (MDA-MB-435): 3.11 µM
TGI (MDA-MB-435): 13.2 µM
GI50 (MOLT-4 leukemia): 0.435 µM
TGI (MOLT-4 leukemia): > 100 µM
GI50 (NCI-H226 lung): 2.22 µM
TGI (NCI-H226 lung): > 100 µM
GI50 (NCI-H23 lung): 2.76 µM
TGI (NCI-H23 lung): > 100 µM
GI50 (NCI-H460 lung): 3.13 µM
TGI (NCI-H460 lung): 30.8 µM
GI50 (NCI-H522 lung): 1.69 µM
TGI (NCI-H522 lung): 3.64 µM
GI50 (NCI/ADR-RES ovarian): 2.81 µM
TGI (NCI/ADR-RES ovarian): > 100 µM
GI50 (OVCAR-3 ovarian): 2.92 µM
TGI (OVCAR-3 ovarian): 16 µM
GI50 (OVCAR-4 ovarian): 3.55 µM
TGI (OVCAR-4 ovarian): > 100 µM
GI50 (OVCAR-5 ovarian): 3.04 µM
TGI (OVCAR-5 ovarian): > 100 µM
GI50 (OVCAR-8 ovarian): 3.3 µM
TGI (OVCAR-8 ovarian): 14.5 µM
GI50 (PC-3 prostate): 0.833 µM
TGI (PC-3 prostate): > 100 µM
GI50 (RPMI-8226 leukemia): 0.348 µM
TGI (RPMI-8226 leukemia): > 100 µM
GI50 (RXF 393 renal): 0.157 µM
TGI (RXF 393 renal): 0.658 µM
GI50 (SF-268 CNS): 2.47 µM
TGI (SF-268 CNS): > 100 µM
GI50 (SF-295 CNS): 0.303 µM
TGI (SF-295 CNS): 1.22 µM
GI50 (SF-539 CNS): 0.333 µM
TGI (SF-539 CNS): 1.67 µM
GI50 (SK-MEL-2 melanoma): 2.93 µM
TGI (SK-MEL-2 melanoma): 12 µM
GI50 (SK-MEL-28 melanoma): 1.39 µM
TGI (SK-MEL-28 melanoma): 4.19 µM
GI50 (SK-MEL-5 melanoma): 2.13 µM
TGI (SK-MEL-5 melanoma): 5.15 µM
GI50 (SN12C renal): 3.03 µM
TGI (SN12C renal): > 100 µM
GI50 (SNB-19 CNS): 2.09 µM
TGI (SNB-19 CNS): 22.1 µM
GI50 (SNB-75 CNS): 0.339 µM
TGI (SNB-75 CNS): 9.95 µM
GI50 (SR leukemia): 0.659 µM
TGI (SR leukemia): > 100 µM
GI50 (SW-620 colon): 2.64 µM
TGI (SW-620 colon): > 100 µM
GI50 (T-47D breast): 3.27 µM
TGI (T-47D breast): 44.7 µM
GI50 (TK-10 renal): 9.21 µM
TGI (TK-10 renal): > 100 µM
GI50 (U251 CNS): 0.68 µM
TGI (U251 CNS): 4.42 µM
GI50 (UACC-257 melanoma): 2 µM
TGI (UACC-257 melanoma): 5.91 µM
GI50 (UO-31 renal): 1.43 µM
TGI (UO-31 renal): 12.9 µM
